Results reported in PubChem BioAssay (NCI).
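Five compound concentrations were applied to cells in 96-well plates for 48 hours; endpoints were derived by simple linear interpolation of the resulting dose-response curve. Abbreviation: GI50, concentration required for 50% inhibition of growth. The concentration for full growth arrest is given as TGI.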

Legend:
Experiment in all cases: inhibition of tumour cell growth, NCI panel, 48 h
IGROV1 ovarian = system: IGROV1 ovarian
HCC-2998 colon = system: HCC-2998 colon
HS 578T breast = system: HS 578T breast
UO-31 renal = system: UO-31 renal
T-47D breast = system: T-47D breast
HT29 colon = system: HT29 colon
K-562 leukemia = system: K-562 leukemia
SF-539 CNS = system: SF-539 CNS
SF-268 CNS = system: SF-268 CNS
SK-MEL-28 melanoma = system: SK-MEL-28 melanoma
COLO 205 colon = system: COLO 205 colon
MOLT-4 leukemia = system: MOLT-4 leukemia
NCI/ADR-RES ovarian = system: NCI/ADR-RES ovarian
RXF 393 renal = system: RXF 393 renal
SNB-75 CNS = system: SNB-75 CNS
SK-MEL-2 melanoma = system: SK-MEL-2 melanoma
786-0 renal = system: 786-0 renal
ACHN renal = system: ACHN renal
RPMI-8226 leukemia = system: RPMI-8226 leukemia
A498 renal = system: A498 renal
NCI-H23 lung = system: NCI-H23 lung
HCT-116 colon = system: HCT-116 colon
CAKI-1 renal = system: CAKI-1 renal
CCRF-CEM leukemia = system: CCRF-CEM leukemia
UACC-257 melanoma = system: UACC-257 melanoma
BT-549 breast = system: BT-549 breast
HL-60(TB) leukemia = system: HL-60(TB) leukemia
MDA-MB-435 = system: MDA-MB-435
SK-OV-3 ovarian = system: SK-OV-3 ovarian
HOP-62 NSCLC = system: HOP-62 NSCLC
M14 melanoma = system: M14 melanoma
OVCAR-5 ovarian = system: OVCAR-5 ovarian
SR leukemia = system: SR leukemia
SNB-19 CNS = system: SNB-19 CNS
U251 CNS = system: U251 CNS
OVCAR-8 ovarian = system: OVCAR-8 ovarian
HCT-15 colon = system: HCT-15 colon
MALME-3M melanoma = system: MALME-3M melanoma
NCI-H226 lung = system: NCI-H226 lung
HOP-92 NSCLC = system: HOP-92 NSCLC
NCI-H460 lung = system: NCI-H460 lung
NCI-H522 lung = system: NCI-H522 lung
UACC-62 melanoma = system: UACC-62 melanoma
SF-295 CNS = system: SF-295 CNS
PC-3 prostate = system: PC-3 prostate
SW-620 colon = system: SW-620 colon
KM12 colon = system: KM12 colon
A549 NSCLC = system: A549 NSCLC
MCF7 breast = system: MCF7 breast
EKVX NSCLC = system: EKVX NSCLC
SK-MEL-5 melanoma = system: SK-MEL-5 melanoma
OVCAR-4 ovarian = system: OVCAR-4 ovarian
OVCAR-3 ovarian = system: OVCAR-3 ovarian
MDA-MB-231 breast = system: MDA-MB-231 breast
DU-145 prostate = system: DU-145 prostate
SN12C renal = system: SN12C renal
LOX IMVI melanoma = system: LOX IMVI melanoma
TK-10 renal = system: TK-10 renal

Structure (SMILES): CCOC(=O)C(NC(=O)Nc1ccc(C)cc1)(OCC)C(F)(F)F (centres undefined)
- TGI (IGROV1 ovarian): > 100 µM
- TGI (HCC-2998 colon): > 100 µM
- TGI (HS 578T breast): > 100 µM
- TGI (UO-31 renal): > 100 µM
- TGI (T-47D breast): > 100 µM
- TGI (HT29 colon): > 100 µM
- TGI (K-562 leukemia): > 100 µM
- TGI (SF-539 CNS): > 100 µM
- TGI (SF-268 CNS): > 100 µM
- TGI (SK-MEL-28 melanoma): > 100 µM
- TGI (COLO 205 colon): > 100 µM
- TGI (MOLT-4 leukemia): > 100 µM
- TGI (NCI/ADR-RES ovarian): > 100 µM
- TGI (RXF 393 renal): > 100 µM
- TGI (SNB-75 CNS): > 100 µM
- TGI (SK-MEL-2 melanoma): > 100 µM
- TGI (786-0 renal): > 100 µM
- TGI (ACHN renal): > 100 µM
- TGI (RPMI-8226 leukemia): > 100 µM
- TGI (A498 renal): > 100 µM
- TGI (NCI-H23 lung): > 100 µM
- TGI (HCT-116 colon): > 100 µM
- TGI (CAKI-1 renal): > 100 µM
- TGI (CCRF-CEM leukemia): > 100 µM
- TGI (UACC-257 melanoma): > 100 µM
- TGI (BT-549 breast): > 100 µM
- TGI (HL-60(TB) leukemia): > 100 µM
- TGI (MDA-MB-435): > 100 µM
- TGI (SK-OV-3 ovarian): > 100 µM
- TGI (HOP-62 NSCLC): > 100 µM
- TGI (M14 melanoma): > 100 µM
- TGI (OVCAR-5 ovarian): > 100 µM
- TGI (SR leukemia): > 100 µM
- TGI (SNB-19 CNS): > 100 µM
- TGI (U251 CNS): > 100 µM

Structure (SMILES): CCCOC(=O)N[C@H]1CCc2c(Cl)c(OC)c(OC)c(OC)c2-c2ccc(SC)c(=O)cc21
- GI50 (OVCAR-8 ovarian): < 0.0122 µM
- TGI (OVCAR-8 ovarian): > 100 µM
- GI50 (HCT-15 colon): < 0.01 µM
- TGI (HCT-15 colon): 16.6 µM
- GI50 (MALME-3M melanoma): < 0.01 µM
- TGI (MALME-3M melanoma): 17.1 µM
- GI50 (NCI-H226 lung): < 0.01 µM
- TGI (NCI-H226 lung): 12.5 µM
- GI50 (HOP-92 NSCLC): < 0.0119 µM
- TGI (HOP-92 NSCLC): 4.65 µM
- GI50 (IGROV1 ovarian): < 0.01 µM
- TGI (IGROV1 ovarian): > 65.6 µM
- GI50 (HCC-2998 colon): < 0.0112 µM
- TGI (HCC-2998 colon): 0.7 µM
- GI50 (HS 578T breast): < 0.01 µM
- TGI (HS 578T breast): 20.6 µM
- GI50 (UO-31 renal): 0.0747 µM
- TGI (UO-31 renal): 27.9 µM
- GI50 (NCI-H460 lung): < 0.0112 µM
- TGI (NCI-H460 lung): 0.944 µM
- GI50 (HT29 colon): < 0.01 µM
- TGI (HT29 colon): 37.6 µM
- GI50 (K-562 leukemia): < 0.01 µM
- TGI (K-562 leukemia): > 100 µM
- GI50 (NCI-H522 lung): < 0.01 µM
- TGI (NCI-H522 lung): 0.271 µM
- GI50 (UACC-62 melanoma): < 0.01 µM
- TGI (UACC-62 melanoma): 13.8 µM
- GI50 (SF-295 CNS): < 0.01 µM
- GI50 (PC-3 prostate): < 0.01 µM
- TGI (PC-3 prostate): > 100 µM
- GI50 (SF-539 CNS): < 0.01 µM
- TGI (SF-539 CNS): < 0.0356 µM
- GI50 (SF-268 CNS): < 0.0117 µM
- TGI (SF-268 CNS): 17.4 µM
- GI50 (SK-MEL-28 melanoma): 2.02 µM
- TGI (SK-MEL-28 melanoma): 23.5 µM
- GI50 (SW-620 colon): < 0.01 µM
- TGI (SW-620 colon): > 52.5 µM
- GI50 (MOLT-4 leukemia): < 0.01 µM
- TGI (MOLT-4 leukemia): 23.6 µM
- GI50 (NCI/ADR-RES ovarian): 0.0269 µM
- TGI (NCI/ADR-RES ovarian): 21.6 µM
- GI50 (KM12 colon): < 0.01 µM
- TGI (KM12 colon): 1.63 µM
- GI50 (RXF 393 renal): < 0.01 µM
- TGI (RXF 393 renal): 8.41 µM
- GI50 (SNB-75 CNS): < 0.01 µM
- TGI (SNB-75 CNS): 14.5 µM
- GI50 (A549 NSCLC): < 0.0153 µM
- TGI (A549 NSCLC): > 100 µM
- GI50 (SK-MEL-2 melanoma): 1.88 µM
- TGI (SK-MEL-2 melanoma): 29.9 µM
- GI50 (786-0 renal): < 0.0174 µM
- TGI (786-0 renal): 21.5 µM
- GI50 (ACHN renal): < 0.01 µM
- TGI (ACHN renal): 23.6 µM
- GI50 (MCF7 breast): < 0.01 µM
- TGI (MCF7 breast): 13.1 µM
- GI50 (RPMI-8226 leukemia): < 0.01 µM
- TGI (RPMI-8226 leukemia): 7.73 µM
- GI50 (A498 renal): < 0.01 µM
- TGI (A498 renal): < 0.01 µM
- GI50 (NCI-H23 lung): < 0.01 µM
- TGI (NCI-H23 lung): 32.5 µM
- GI50 (HCT-116 colon): < 0.01 µM
- TGI (HCT-116 colon): 12.7 µM
- GI50 (CAKI-1 renal): < 0.0226 µM
- TGI (CAKI-1 renal): 14.1 µM
- GI50 (CCRF-CEM leukemia): < 0.01 µM
- TGI (CCRF-CEM leukemia): > 100 µM
- GI50 (EKVX NSCLC): < 0.01 µM
- TGI (EKVX NSCLC): > 100 µM
- GI50 (UACC-257 melanoma): 7.46 µM
- TGI (UACC-257 melanoma): 37.5 µM
- GI50 (BT-549 breast): < 0.01 µM
- TGI (BT-549 breast): 6.01 µM
- GI50 (HL-60(TB) leukemia): < 0.01 µM
- TGI (HL-60(TB) leukemia): < 0.01 µM
- GI50 (MDA-MB-435): < 0.01 µM
- TGI (MDA-MB-435): < 0.01 µM
- GI50 (SK-MEL-5 melanoma): < 0.01 µM
- TGI (SK-MEL-5 melanoma): 0.0207 µM
- GI50 (OVCAR-4 ovarian): < 0.012 µM
- TGI (OVCAR-4 ovarian): > 100 µM
- GI50 (OVCAR-3 ovarian): < 0.01 µM
- TGI (OVCAR-3 ovarian): < 0.01 µM
- GI50 (MDA-MB-231 breast): < 0.01 µM
- TGI (MDA-MB-231 breast): 4.71 µM
- GI50 (HOP-62 NSCLC): 0.0101 µM
- TGI (HOP-62 NSCLC): 50.9 µM
- GI50 (M14 melanoma): < 0.01 µM
- TGI (M14 melanoma): 4.47 µM
- GI50 (OVCAR-5 ovarian): < 0.013 µM
- TGI (OVCAR-5 ovarian): > 76.7 µM
- GI50 (SR leukemia): < 0.01 µM
- TGI (SR leukemia): 19.2 µM
- GI50 (DU-145 prostate): < 0.01 µM
- TGI (DU-145 prostate): 0.0575 µM
- GI50 (SN12C renal): < 0.0123 µM
- TGI (SN12C renal): 13.6 µM
- GI50 (SNB-19 CNS): < 0.01 µM
- TGI (SNB-19 CNS): 27.4 µM
- GI50 (LOX IMVI melanoma): < 0.01 µM
- TGI (LOX IMVI melanoma): 13 µM
- GI50 (U251 CNS): < 0.01 µM
- TGI (U251 CNS): 12.2 µM
- GI50 (TK-10 renal): 5.04 µM
- TGI (TK-10 renal): > 88.4 µM
